Tests used:
[1] = tested on: sensory panel of twelve testers; assay: Sensory panel evaluation of initial sweetness characteristics of sweeteners in water (Example 1); type: in vivo; conditions: for behavior as compared to sucrose, all concentrations plotted: FIG. 12; for initial sweetness perception: FIG. 2/FIG. 4; for initial bitterness perception: FIG. 3/FIG. 5
Method: Sensory evaluations of different sweeteners at various concentrations were performed to provide comparative analysis of organoleptic characteristics of aqueous solutions of rebaudioside D, versus other sweeteners. The rebaudioside D was a stevia extract having a purity of at least 93% by weight rebaudioside D (Reb D). Initial sweetness characteristics of three concentrations of such Reb D in water were determined by a sensory panel of twelve testers. Sensory panels are well known to those of skill in the art, and comprise testers trained to evaluate the organoleptic attributes of comestibles. Typically, sensory panelists have been screened for their taste acuity and extensively trained in the use of standardized vocabulary to describe the appearance, aroma, flavor, mouthfeel and aftertaste of a wide variety of products, as well as scaling techniques to quantify the attributes. The numerical data generated by the sensory panel testers were then analyzed for their statistical significance.
The water employed in the tests of Example 1 comprised purified water as described in detail above, and having a pH of 7.0. The initial sweetness characteristics of 1200 parts per million (ppm) Reb D in water were compared to the initial sweetness characteristics of aqueous solutions of each of 1200 ppm rebaudioside A (Reb A), sucrose, aspartame and sucralose. The rebaudioside A was a stevia extract comprising a purity of 95% by weight rebaudioside A (PureCircle USA Inc., Oak Brook, Ill.). The specific attributes tested by the sensory panel comprised sweetness, thickness, astringency, bitterness, numbing, cooling and licorice.
The initial sweetness characteristics of other concentrations of rebaudioside D in water were also tested and compared to the same concentrations of rebaudioside A in water. […] FIGS. 2 through 5 illustrate the differences in the characteristics of sweetness and bitterness attributes between Reb D and Reb A.

[2] = tested on: sensory panel of twelve testers; assay: Sensory panel evaluation in water, noncarbonated beverage base and carbonated beverage base (Example 2); type: in vivo; design: Sweetness / Bitterness: scale not given here; conditions: for interaction between the sweetener and the three beverage bases (initial sweetness attribute plots): water, noncarbonated and carbonated beverage base; for Reb D Compared to Reb A % Ratio, Bitterness / Reb D Compared to Reb A % Ratio, Sweetness: ratio of Reb D to Reb A
Method: Potential beverage base effects on the initial sweetness perception of rebaudioside D were investigated by performing tests of three concentrations of rebaudioside D (Reb D) in water, in a noncarbonated beverage base, and in a carbonated beverage base, by a sensory panel of twelve testers. The numerical data generated by the sensory panel testers were then analyzed for their statistical significance.
The water employed for the tests of this Example comprised the characteristics as described in Example 1. The noncarbonated beverage base comprised purified water, and citric acid in an amount sufficient to decrease the pH of the noncarbonated beverage base to 3.1. The carbonated beverage base comprised purified water, carbon dioxide, and citric acid in an amount sufficient to decrease the pH of the noncarbonated beverage base to about 3.1. The initial sweetness characteristics of 606 parts per million (ppm) Reb D in water were compared to the initial sweetness characteristics of 606 ppm Reb D in noncarbonated beverage base and 606 ppm Reb D in carbonated beverage base.
The specific attributes tested by the sensory panel comprised sweetness, thickness, astringency, bitterness, numbing, cooling, licorice, burn/tingle and mouthcoat.

[3] = Sweetness intensity and quality of taste of steviol glycosides reported by Kinghorn (2002); conditions: from the Kinghorn values
From the text: In the book “Stevia, The genus Stevia”, edited by A. Douglas Kinghorn (2002), the structural differences, sweetness intensity and quality of taste between the steviol glycosides is reported on page 138. The relative quality of taste, as compared to stevioside, (i.e., stevioside is rated 0) of rebaudioside D was rated higher (+3) than rebaudioside A was rated (+2). Particular taste attributes that contributed to the quality of taste, however, were not individually rated. The sweetness of rebaudioside A was reported to have a value of 242, whereas the sweetness of rebaudioside D was reported to have a value of 221.

Water solubility = type: physicochemical; conditions: commercially available Reb D
From the text: The water solubility of commercially available Reb D is low, thus, according to certain embodiments of the invention, rebaudioside D is provided as a supersaturated solution of rebaudioside D in the beverage products disclosed herein. As used herein, the term “saturated” refers to the point of maximum concentration at which a solution of a substance (e.g., a rebaudioside D solution) can dissolve no more of that substance. The saturation point of a substance depends on the temperature of the liquid the substance is to be dissolved in, as well as the chemical natures of the liquid and the substance involved (e.g., the water and/or the rebaudioside D). As used herein, the term “supersaturated” refers to a solution that contains more of a dissolved material (e.g., rebaudioside D) than a saturated solution. Supersaturated solutions are typically achieved when one or more conditions of a saturated solution is changed, such as, e.g., temperature, volume (e.g., by evaporation), pressure or the like.

[4] = commonly accepted potency figures; cited from earlier work
[5] = Kinghorn (2002) page 138, cited from earlier work
[6] = 360 ppm, averaged across all three beverage bases
[7] = 606 ppm, averaged across all three beverage bases
[8] = 1200 ppm, averaged across all three beverage bases
[9] = CSD (carbonated beverage base), 360 ppm
[10] = CSD (carbonated beverage base), 606 ppm
[11] = High Level, 1200 ppm, averaged across all three beverage bases
[12] = Low-Medium Level, 360 ppm, averaged across all three beverage bases
[13] = Medium Level, 606 ppm, averaged across all three beverage bases
[14] = NCB (noncarbonated beverage base), 360 ppm
[15] = NCB (noncarbonated beverage base), 606 ppm

Compound: C=C1C[C@@]23CC[C@H]4[C@@](C)(CCC[C@@]4(C)C(=O)O[C@@H]4O[C@H](CO)[C@@H](O)[C@H](O)[C@H]4O[C@@H]4O[C@H](CO)[C@@H](O)[C@H](O)[C@H]4O)[C@@H]2CC[C@]1(O[C@@H]1O[C@H](CO)[C@@H](O)[C@H](O[C@@H]2O[C@H](CO)[C@@H](O)[C@H](O)[C@H]2O)[C@H]1O[C@@H]1O[C@H](CO)[C@@H](O)[C@H](O)[C@H]1O)C3 [Reb D, rebaudioside D]
- overall attributes versus Reb A ([1]; 360, 606 and 1200 ppm in water, FIG. 8): less bitterness and astringency
- behavior as compared to sucrose, all concentrations plotted ([1]; 360 ppm and 606 ppm Reb D in water): behaved more like sucrose than did any of the concentrations of Reb A
- attributes of lower levels versus the same levels of Reb A ([1]; 360 ppm and 606 ppm in water, FIG. 8): less bitter, astringent, numbing and licorice
- bitterness perception value less than same concentration of Reb A ([1]; 360 ppm in water): about 30
- initial sweetness perception ([1]; 360 ppm in water): about 62
- initial bitterness perception ([1]; 360 ppm in water): about 8
- initial sweetness attributes versus the same concentration of Reb A ([1]; 360 ppm in water, FIG. 7): significantly less astringency, bitterness and numbing
- relative sweet properties (continuum regular sweet to artificial sweet-like) versus same concentration of Reb A ([1]; 360 ppm in water, FIG. 11): behaved more like sucrose
- bitterness perception value less than same concentration of Reb A ([1]; 600 ppm in water): about 47
- initial sweetness attributes versus the same concentration of Reb A ([1]; 606 ppm in water, FIG. 6): significantly less astringency, bitterness and numbing
- relative sweet properties (continuum regular sweet to artificial sweet-like) versus same concentration of Reb A ([1]; 606 ppm in water, FIG. 10): behaved more like sucrose
- behavior as compared to sucrose, all concentrations plotted ([1]; 1200 ppm Reb D in water): behaved more like sucrose than did either 606 ppm Reb A or 1200 ppm Reb A
- bitterness perception value less than same concentration of Reb A ([1]; 1200 ppm in water): about 67
- initial sweetness attributes versus the same concentration of Reb A ([1]; 1200 ppm in water, FIG. 1): significantly less astringency, bitterness and numbing
- initial sweetness perception ([1]; 1200 ppm in water): about 108
- initial bitterness perception ([1]; 1200 ppm in water): about 18
- relative sweet properties (continuum regular sweet to artificial sweet-like) versus same concentration of Reb A ([1]; 1200 ppm in water, FIG. 9): behaved more like sucrose
- numerical value of the bitterness perception versus Reb A ([1]; all concentrations in water): significantly lower
- change in sweetness perception with an increase in concentration ([1]; in water, 360 to 1200 ppm): significant increase in sweetness perception
- increase in bitterness perception with an increase in concentration, versus Reb A ([1]; in water, 360 to 1200 ppm): substantially lower
- licorice attribute, 606 ppm Reb D versus 1200 ppm Reb D ([1]; in water, FIG. 6): lower value
- correlation to the sweetness perception attributes of sucrose, versus rebaudioside A ([1]; in water, FIG. 8): more highly correlated
- average bitterness in each of the three beverage bases versus Reb A ([2]; 360 ppm): lower average bitterness
- average sweetness in each of the three beverage bases versus Reb A ([2]; 360 ppm): greater average sweetness
- interaction between the sweetener and the three beverage bases (initial sweetness attribute plots) ([2]; 360 ppm (sucrose 5.4 brix), FIGS. 16-18): no significant interaction
- Reb D Compared to Reb A % Ratio, Bitterness [2, 6]: 37%
- Reb D Compared to Reb A % Ratio, Sweetness [2, 6]: 115%
- average bitterness in each of the three beverage bases versus Reb A ([2]; 606 ppm): lower average bitterness
- average sweetness in each of the three beverage bases versus Reb A ([2]; 606 ppm): greater average sweetness
- interaction between the sweetener and the three beverage bases (initial sweetness attribute plots) ([2]; 606 ppm (sucrose 8.5 brix), FIGS. 13-15): no significant interaction
- Reb D Compared to Reb A % Ratio, Bitterness [2, 7]: 30%
- Reb D Compared to Reb A % Ratio, Sweetness [2, 7]: 117%
- Reb D Compared to Reb A % Ratio, Bitterness [2, 8]: 40%
- Reb D Compared to Reb A % Ratio, Sweetness [2, 8]: 150%
- Bitterness [2, 9]: 18.1
- Sweetness [2, 9]: 63.4
- Bitterness [2, 10]: 14.1
- Sweetness [2, 10]: 73.9
- Bitterness [2, 11]: 17.4
- Sweetness [2, 11]: 105.5
- Bitterness [2, 12]: 7.7
- Sweetness [2, 12]: 60.6
- Bitterness [2, 13]: 9.8
- Sweetness [2, 13]: 74.3
- Bitterness [2, 14]: 10.7
- Sweetness [2, 14]: 58.9
- Bitterness [2, 15]: 7.4
- Sweetness [2, 15]: 85.1
- Bitterness ([2]; Water, 360 ppm): 7.7
- Sweetness ([2]; Water, 360 ppm): 60.6
- Bitterness ([2]; Water, 606 ppm): 9.8
- Sweetness ([2]; Water, 606 ppm): 74.3
- sweetness less than the sweetness of rebaudioside A [3]: approximately 10%
- water solubility (Water solubility): low
- potency, times as sweet as sugar [4]: 150-300 times as sweet as sugar
- sweetness (value reported by Kinghorn) [5]: 221
- relative quality of taste, as compared to stevioside ([5]; stevioside is rated 0): +3
